Measured values reported in paper PMC9019100, “Development of NanoLuc-targeting protein degraders and a universal reporter system to benchmark tag-targeted degradation platforms” (Nature Communications, 2022).
Where “and” joins values, the source holds several entries; their conditions need not be identical. Identical values can stand only once. Like-named read-outs stand apart in the source and are kept apart here.

Tests used:
[1] = molecular target: T1, Halo-EGFP-NanoLuc-FKBP^F36V (H-E-N-F) fusion protein (UniProt P0A3G2+P62942+Q9GV45, A155T/A167V/A172T/A224E/A31E/A60N/A81I/C128F/C176G/D78G/E160K/E257K/F37V/F95D/H272N/I117V/K175M/K195N/K70R/L47V/L54V/L88M/L99Q/M102K/N193R/N227D/P142E/P291S/Q151K/Q38R/Q45L/S2A/S58T/T264A/V71I/Y165I/Y273L/Y87F); type: cell-based; conditions: for Blank corrected (470-80) luminescence / Blank corrected Raw Data (470-80): +dox; for Blank corrected (470-80) luminescence: single well replicates; for Blank corrected (470-80): sheet S3B; for Blank corrected (470-80) / Blank corrected Raw Data (470-80): replicate wells; for Blank corrected Raw Data (470-80): PROTAC 500nM
Target sequence in this assay (Q9GV45 other isoform, or with tags, fused parts or gaps with the stated changes): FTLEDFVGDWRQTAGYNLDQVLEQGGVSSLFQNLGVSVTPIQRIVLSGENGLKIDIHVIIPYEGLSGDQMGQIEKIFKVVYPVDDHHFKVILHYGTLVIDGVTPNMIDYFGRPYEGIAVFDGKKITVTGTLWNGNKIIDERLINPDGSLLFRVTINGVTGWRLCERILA
Target sequence in this assay (P0A3G2 other isoform, or with tags, fused parts or gaps with the stated changes): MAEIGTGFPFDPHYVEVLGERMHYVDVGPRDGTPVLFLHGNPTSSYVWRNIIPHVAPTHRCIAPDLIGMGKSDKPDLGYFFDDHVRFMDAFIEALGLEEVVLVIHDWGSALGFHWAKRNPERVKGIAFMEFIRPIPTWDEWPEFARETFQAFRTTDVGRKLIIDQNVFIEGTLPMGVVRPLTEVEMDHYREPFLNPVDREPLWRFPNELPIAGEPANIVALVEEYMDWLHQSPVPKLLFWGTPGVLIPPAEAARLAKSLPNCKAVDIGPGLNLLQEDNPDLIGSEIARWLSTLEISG
Target sequence in this assay (P62942 whole entry F37V, the tested form may be a part): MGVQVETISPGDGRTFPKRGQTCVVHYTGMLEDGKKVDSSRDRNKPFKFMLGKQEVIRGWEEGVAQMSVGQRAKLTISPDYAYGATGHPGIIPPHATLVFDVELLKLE

[2] = molecular target: T2, murine MLKL-FKBP^F36V (Homo sapiens, UniProt P62942, F37V); type: cell-based; conditions: 31.2-500 nM, 5 h
T2 construct: expressed in transfected cells; host or cells: Mlkl-/- mouse dermal fibroblasts, doxycycline-inducible
Protocol: All timepoint experiments were performed as reverse timepoints in order to harvest all cells at the same time. At the indicated time points cells were lysed in NuPAGE LDS lysis buffer (Invitrogen) diluted to 1× in DISC lysis buffer (20 mM Tris-HCl pH7.5, 150 mM NaCl, 2 mM EDTA pH 8.0, 1% Triton X-100, 10% glycerol, H20)) supplemented with β-Mercaptoethanol (2%), protease and phosphatase inhibitors. Lysates were run through polypropylene columns (Pierce) to shred DNA. […] Membranes were blocked in 5% skim milk (Devondale) in TBS-T (TBS, 0.1% Tween-20) for 1 h prior to immunoblotting with primary antibodies overnight at 4 °C. Unless stated otherwise, all primary antibodies were diluted in TBS-T (TBS, 0.1% Tween-20) containing 5% BSA (Sigma A8022) and 0.04% sodium azide: HaloTag (1:1000, Promega; G9211), NanoLuc (1:500, Promega; N7000), β-actin (1:20,000, Sigma; A-1798), MLKL (1:1000, produced in-house; 3H1 clone)[39], FKBP (1:1000, R&D systems; 422513), caspase-8 (1:1000, Proteintech; 13423-1-AP), Histone H3 (1:1000, Abcam; ab10799), Cadherin (1:1000, Cell Signalling Technologies; 4068 T). Membranes were washed 3 × 5–10 min in TBS-T (TBS, 0.1% Tween-20) prior to the addition of the appropriate secondary antibodies conjugated with horseradish peroxidase (Jaxon laboratories). […]

[3] = molecular target: T3, Fibrillarin-FKBP^F36V (Homo sapiens, UniProt P62942, F37V); type: cell-based; conditions: 500 nM, 10 h
T3 construct: endogenous in cells; host or cells: 293T, CRISPR/PITCh knock-in at the FBL locus

[4] = system: MLKL^−/− HT29 cells expressing MLKL-FKBP^F36V; type: cell-based; conditions: for Live cells (%PI negative) after TNF+911+zVAD: MLKL-/- + MLKL FKBPF36V, independent experiments
Protocol: Cell death was assessed by flow cytometric analysis of PI exclusion. […] Cell death was assessed by flow cytometric analysis of PI exclusion. […] Cell death was assessed by flow cytometric analysis of PI exclusion. e N = 4, f N = 3 independent experiments (symbols), EB represent mean ± SD. g Western from MLKL^−/−CASP8^−/− HT29 cells stably expressing the doxycycline-inducible C-terminal fusion protein, MLKL-NanoLuc (MLKL-NLuc) and constitutively expressing the C-terminal fusion protein caspase-8-FKBP^F36V. […] Cell death was assessed using an IncuCyte and Cytotox-Red uptake. N = 3 independent experiments, one representative experiment shown, EB represent mean ± SD.

[5] = system: MLKL^−/− HT29 cells expressing untagged MLKL; type: cell-based; conditions: MLKL-/- + MLKL, independent experiments
[6] = system: wild-type HT29 cells; assay: Necroptosis assay (PI exclusion, flow cytometry), wild-type HT29 cells, TNF+SM+IDN; type: cell-based, human; conditions: sheet S5H
Protocol: To simulate necroptosis, cells were seeded into 96-well plates ±40 ng/mL doxycycline, to induce construct expression, and treated with 100 ng/mL FLAG-TNF (recombinant human, in-house), 500 nM compound A Smac mimetic (kindly gifted by TetraLogics Pharmaceuticals) and 5 μM IDN-6556 (Cayman) or 10 uM Z-VAD-fmk (Selleckchem) overnight (16–24 h). Degrader compounds or a DMSO vehicle control were added for 5 h, as stated in the Fig. legends. Cells were detached using Trypsin-EDTA (Merck) and resuspended in cell supernatants containing 10 μg/mL propidium iodide (PI). PI exclusion analysis was performed using an LSR II flow cytometer (Becton Dickinson, NJ) with 10,000 single-cell events per sample. Flow cytometry data were analysed using WEASEL version 2.7 software (Frank Battye).
Supplementary Figure 5. […]
NC4. Data are representative of N = 3 independent experiments. f-h. HT29 cells were stimulated with DMSO (control) or 500 nM of degrader for 5 hours before the addition of TNF (100 ng/mL) + Smac mimetic (compound A; 500 nM-1 µM) + caspase inhibitor; Emricasan (IDN) (5 µM), for 24 hours. Cell death was assessed by flow cytometric analysis of PI exclusion. N = 3 replicates (symbols) is shown, EB; mean ± SD. Data are representative of N = 3 independent experiments. i. Representative flow cytometry gating strategy. Source data are provided as a Source Data file.

[7] = molecular target: T1, Halo-EGFP-NanoLuc-FKBP^F36V (H-E-N-F) fusion protein; type: cell-based; design: expressed in transfected cells; host or cells: immortalized mouse dermal fibroblasts (iMDFs), ubiquitin promoter, constitutive; conditions: 500 nM
Target sequence in this assay (P0A3G2 other isoform, or with tags, fused parts or gaps with the stated changes): as the sequence (P0A3G2 other isoform, or with tags, fused parts or gaps with the stated changes) above
Target sequence in this assay (Q9GV45 other isoform, or with tags, fused parts or gaps with the stated changes): as the sequence (Q9GV45 other isoform, or with tags, fused parts or gaps with the stated changes) above
Target sequence in this assay (P62942 whole entry F37V, the tested form may be a part): as the sequence (P62942 whole entry F37V, the tested form may be a part) above

[8] = cited from earlier work

T3 sequence (P62942 whole entry F37V): as the sequence (P62942 whole entry F37V, the tested form may be a part) above
T2 sequence (P62942 whole entry F37V): as the sequence (P62942 whole entry F37V, the tested form may be a part) above

CC[C@H](C(=O)N1CCCC[C@H]1C(=O)O[C@H](CCc1ccc(OC)c(OC)c1)c1ccccc1OCC(=O)NCCCCCCOc1cccc2c1C(=O)N(C1CCC(=O)NC1=O)C2=O)c1cc(OC)c(OC)c(OC)c1 (stereo partly shown) [FC1]
Blank corrected (470-80) luminescence ([1]; 3.9nM PROTAC): 74602 and 77149 and 76062 and 81411 | Blank corrected (470-80) luminescence ([1]; 7.8nM PROTAC): 59479 and 62985 and 66400 | Blank corrected (470-80) luminescence ([1]; 31.25nM PROTAC): 36339 and 35562 and 38426 | Blank corrected (470-80) luminescence ([1]; 62.5nM PROTAC): 25282 and 26898 and 23798 and 25010 | Blank corrected (470-80) ([1]; 62.5nM): 88170.7 and 89328.7 and 91847.7 and 71716.7 | Blank corrected (470-80) luminescence ([1]; 250nM PROTAC): 11621 and 12159 and 11550 | Blank corrected (470-80) ([1]; 250nM): 43826.7 and 54015.7 and 43806.7 and 52617.7 | Blank corrected (470-80) luminescence ([1]; 500nM PROTAC, 5h): 14990 and 16286 and 14132 | Blank corrected (470-80) luminescence ([1]; 500nM PROTAC, 8h): 14691 and 12990 and 15151 | Blank corrected (470-80) luminescence ([1]; 500nM PROTAC, 24h): 19581 and 16848 and 19949 and 18475 | Blank corrected (470-80) luminescence ([1]; 500nM PROTAC): 10379 and 10950 and 11612 | Blank corrected (470-80) ([1]; 500nM): 41968.7 and 40671.7 and 43532.7 and 41295.7 | Blank corrected (470-80) luminescence ([1]; 1uM PROTAC): 13507 and 14074 and 13991 and 15263 | Blank corrected (470-80) ([1]; 1uM): 51312.7 and 60071.7 and 47699.7 and 53692.7 | Blank corrected Raw Data (470-80) ([1]; DMSO (control) co-treatment): 8854 and 8375 and 8376 and 8057 | Blank corrected Raw Data (470-80) ([1]; co-treatment with MG132 (10uM)): 80455 and 95513 and 84222 and 82486 | degradation of murine MLKL-FKBP^F36V [2]: comparable degradation | Dmax (densitometry) [3]: ~ 70% | concentration sustaining cell survival over 24 h [4]: 62.5 nM | Live cells (%PI negative) after TNF+911+zVAD ([4]; 31.25nM): 75.8 and 59.7 and 66 and 51.4 | Live cells (%PI negative) after TNF+911+zVAD ([4]; 62.5nM): 81.5 and 75.5 and 67.7 and 62.5 | Live cells (%PI negative) after TNF+911+zVAD ([4]; 250nM): 83.3 and 81.2 and 68.1 and 65 | Live cells (%PI negative) after TNF+911+zVAD ([4]; 500nM): 83.3 and 81.7 and 67.1 and 65 | Live cells (%PI negative) after TNF+911+zVAD ([4]; 1000nM): 81 and 84.9 and 67.9 and 54.3 | Live cells (%PI negative) after TNF+911+zVAD ([5]; 3.9nM): 6.9 and 6.6 and 8.9 and 5.1 | Live cells (%PI negative) after TNF+911+zVAD ([5]; 7.8nM): 6.1 and 5.8 and 8.5 and 4.8 | Live cells (%PI negative) after TNF+911+zVAD ([5]; 31.25nM): 5.7 and 5.5 and 8.3 and 4.7 | Live cells (%PI negative) after TNF+911+zVAD ([5]; 62.5nM): 6.6 and 6 and 9 and 4.5 | viable cells (PI exclusion) ([6]; TNF+SM+IDN): 8.5 and 5.7 and 7.1 | viable cells (PI exclusion) ([6]; Untreated (no death stimulus)): 77.5 and 79.3 and 78.7 | time up to which degradation was seen, degrader left in the medium ([7]; 5, 24 or 48 h): up to 48 h | time up to which degradation was maintained, degrader removed at 5 h ([7]; 24 or 48 h after removal): up to 48 h

CO[C@H]1C[C@@H]2CC[C@@H](C)[C@@](O)(O2)C(=O)C(=O)N2CCCC[C@H]2C(=O)O[C@H]([C@H](C)C[C@@H]2CC[C@@H](OCCOCc3cn(CCOCCOCCNc4cccc5c4C(=O)N(C4CCC(=O)NC4=O)C5=O)nn3)[C@H](OC)C2)CC(=O)[C@H](C)/C=C(/C)[C@@H](O)[C@@H](OC)C(=O)[C@H](C)C[C@H](C)\C=C/C=C\C=C/1C (stereo partly shown) [RC32]
depletion of substrates in animals [8]: efficient depletion of substrates | tolerability in animals [8]: well tolerated
